Data published in patent US3984470A, “Amidoxime derivatives and process for preparing the same” (priority 1974, dated 1976).

Legend:
toxicity of yohimbine = experiment: Potentiation of the toxicity of yohimbine (test of QUINTON); type: in vivo, male mice; conditions: Mus musculus; 50 mg/kg oral; yohimbine hydrochloride 25 mg/kg i.p.; mortality after 24 hours
Procedure: Yohimbine is a substance which provokes an increase in the serotonine level in the brain or a decrease in norepinephrine according to the author.
For this purpose, the test of QUINTON was used which is described in Brit. J. Pharmacol. 21, 51 (1963). […] […] The percentage of mortality was noted after 24 hours.
Table III hereunder expresses the percentage of potentiation of the toxicity due to yohimbine in comparison with the controls.
The percentage in question was determined 24 hours after the administration of yohimbine.

[1] = system: stereotypies induced by amphetamine; experiment: Potentiation of the stereotypies induced by amphetamine; type: in vivo, rats; conditions: 10 mg/kg oral; amphetamine 10 mg/kg i.p.; every 30 min for 150 min
Procedure: It is commonly admitted that amphetamine induces stereotypies by stimulating the dopaminergic receptors and inhibiting the re-uptake of dopamine into the neuron.
The thymoanaleptics potentiate these stereotypies.
Thirty minutes later, a dose of 10 mg/kg of the compound to be tested was given by oral route. Note was taken of the intensity of the stereotypies every 30 minutes for 150 minutes in accordance with the following scale which indicates the behaviour of the animal.
0 : the rat is motionless and asleep
1 : the rat is motionless and awake
3 : the rat stands on its hind paws and sniffs the lid of its cage in a stereotyped manner.
4 : the rat licks the walls of its cage in a stereotyped manner
5 : the rat bites the bars of its cage or sniffs the shavings of its litter in a stereotyped manner
6 : the rat chews the shavings in a stereotyped manner
The average of the 5 results obtained for each batch was calculated and compared with the average obtained with the control animals.
The difference between these averages represents the mean increase of the steroetypies of the treated animals in comparison with the controls.

reserpine-induced ptosis = experiment: Reserpine-induced ptosis in the rat; type: in vivo, male rats of the CF1 strain; conditions: reserpine 5 mg/kg i.p., score scale 0-4, mean to 6th hour vs controls
Procedure: (§1) The thymoanaleptic properties of the compounds of the invention were determined by means of reserpine-induced ptosis and hypothermia in the rat.
An intraperitoneal dose of 5 mg/kg of reserpine was administered to batches of 5 male rats of the CF1 strain weighing an average of 300 g.
Thirty minutes later a dose of the compound to be studied was given by oral route and the inhibitory effect of the reserpine was noted every hour up to the sixth hour. Ptosis was evaluated for each eye in accordance with the following scale:
4 : eyelids completely closed.
The difference between these two averages represents the average decrease of the ptosis in the treated animals as compared to the controls.

[2] = system: reserpine-induced hypothermia; experiment: Reserpine-induced hypothermia in the rat; type: in vivo, male rats CF1; conditions: reserpine 5 mg/kg i.p., mean to 6th hour vs controls
Procedure: as §1
An intraperitoneal dose of 5 mg/kg of reserpine was administered to batches of 5 male rats CF1 weighing an average of 300 g. Thirty minutes later, the rectal temperature was determined and then a dose of the compound to be tested was given by oral route, except to the control animals. The rectal temperature of all the animals including the controls was taken every hour up to the 6th hour.
The difference between these two averages enabled an estimation to be made regarding the antagonistic effect of the compounds of the invention on the hypothermia induced by reserpine.

CC(Oc1cccc2c1OCCO2)C(N)=NO (stereo not shown) [Compound 45, 2-[(1,4-Benzodioxanyl)-5-oxy]-propionamidoxime]
mortality at 50 mg/kg (toxicity of yohimbine): 10% | Average increase of the stereotypies [1]: 3

Cc1oc2cc(OCC(N)=NO)ccc2c1C [Compound 21, 2-(2,3-Dimethyl-6-benzofuryloxy)-acetamidoxime]
mortality at 50 mg/kg (toxicity of yohimbine): 40% | Average decrease of Ptosis (reserpine-induced ptosis; 10 mg/kg oral): 0.3 | Average increase of the stereotypies [1]: 4.2

Cc1oc2ccc(OCCC(N)=NO)cc2c1C [Compound 23, 3-(2,3-Dimethyl-5-benzofuryloxy)-propionamidoxime]
Average inhibition of hypothermia (positive °C) ([2]; 10 mg/kg oral): 0.3 °C | Average decrease of Ptosis (reserpine-induced ptosis; 10 mg/kg oral): 0.2

Cc1cc2cc(OCCC(N)=NO)ccc2o1 [Compound 32, 3-(2-Methyl-5-benzofuryloxy)-propionamidoxime]
Average decrease of Ptosis (reserpine-induced ptosis; 100 mg/kg oral): 2.3

CC(C)(Oc1cccc2ccccc12)C(N)=NO [Compound 11, 2-(1-Naphtyloxy)-2-methyl-propionamidoxime]
Average inhibition of hypothermia (positive °C) ([2]; 20 mg/kg oral): 0.5 °C | Average decrease of Ptosis (reserpine-induced ptosis; 10 mg/kg oral): 0.7

CC(Oc1ccc2ccoc2c1)C(N)=NO (stereo not shown) [Compound 28, 2-(6-Benzofuryloxy)-propionamidoxime]
Average inhibition of hypothermia (positive °C) ([2]; 100 mg/kg oral): 1.1 °C | Average decrease of Ptosis (reserpine-induced ptosis; 100 mg/kg oral): 2.4

Cc1oc2ccc(OCC(N)=NO)cc2c1C [Compound 15, 2-(2,3-Dimethyl-5-benzofuryloxy)-acetamidoxime]
mortality at 50 mg/kg (toxicity of yohimbine): 10% | Average decrease of Ptosis (reserpine-induced ptosis; 10 mg/kg oral): 0.5 | Average increase of the stereotypies [1]: 1

Cc1oc2ccccc2c1OCCC(N)=NO [Compound 19, 3-(2-Methyl-3-benzofuryloxy)-propionamidoxime]
mortality at 50 mg/kg (toxicity of yohimbine): 10% | Average decrease of Ptosis (reserpine-induced ptosis; 10 mg/kg oral): 0.3

CC(C)c1oc2ccccc2c1OC(C)(C)C(N)=NO [Compound 35, 2-(2-Isopropyl-3-benzofuryloxy)-2-methyl-propionamidoxime]
Average inhibition of hypothermia (positive °C) ([2]; 10 mg/kg oral): 0.7 °C | Average increase of the stereotypies [1]: 3

NC(COc1ccc2ccoc2c1)=NO [Compound 25, 2-(6-Benzofuryloxy)-acetamidoxime]
mortality at 50 mg/kg (toxicity of yohimbine): 30% | Average decrease of Ptosis (reserpine-induced ptosis; 10 mg/kg oral): 0.2 | Average increase of the stereotypies [1]: 4.4

CCC(Oc1c(C(C)C)oc2ccccc12)C(N)=NO (stereo not shown) [Compound 20, 2(2-Isopropyl-3-benzofuryloxy)-butyramidoxime]
Average inhibition of hypothermia (positive °C) ([2]; 10 mg/kg oral): 0.8 °C | Average decrease of Ptosis (reserpine-induced ptosis; 10 mg/kg oral): 0.3

CCC(Oc1ccc2ccoc2c1)C(N)=NO (stereo not shown) [Compound 31, 2-(6-Benzofuryloxy)-butyramidoxime]
Average decrease of Ptosis (reserpine-induced ptosis; 100 mg/kg oral): 2.3

CC(C)(Oc1ccc2ccccc2c1)C(N)=NO [Compound 40, 2-(2-Naphthyloxy)-2-methyl-propionamidoxime]
Average inhibition of hypothermia (positive °C) ([2]; 10 mg/kg oral): 0.2 °C

Cc1oc2c(OC(C)C(N)=NO)cccc2c1C (stereo not shown) [Compound 44, 2-(2,3-Dimethyl-7-benzofuryloxy)-propionamidoxime]
mortality at 50 mg/kg (toxicity of yohimbine): 40%

CCc1oc2ccccc2c1OCC(N)=NO [Compound 27, 2-(2-Ethyl-3-benzofuryloxy)-acetamidoxime]
mortality at 50 mg/kg (toxicity of yohimbine): 20% | Average decrease of Ptosis (reserpine-induced ptosis; 20 mg/kg oral): 0.3

Cc1oc2ccccc2c1OC(C)C(N)=NO (stereo not shown) [Compound 16, 2-(2-Methyl-3-benzofuryloxy)-propionamidoxime]
Average decrease of Ptosis (reserpine-induced ptosis; 10 mg/kg oral): 0.5

CCC(Oc1cccc2c(C)c(C)oc12)C(N)=NO (stereo not shown) [Compound 41, 2-(2,3-Dimethyl-7-benzofuryloxy)-butyramidoxime]
Average inhibition of hypothermia (positive °C) ([2]; 100 mg/kg oral): 1.1 °C

CCc1oc2ccccc2c1OC(CC)C(N)=NO (stereo not shown) [Compound 10, 2-(2-Ethyl-3-benzofuryloxy)-butyramidoxime]
mortality at 50 mg/kg (toxicity of yohimbine): 10% | Average decrease of Ptosis (reserpine-induced ptosis; 10 mg/kg oral): 0.8 | Average increase of the stereotypies [1]: 5.6

CCC(Oc1cccc2occc12)C(N)=NO (stereo not shown) [Compound 43, 2-(4-Benzofuryloxy)-butyramidoxime]
mortality at 50 mg/kg (toxicity of yohimbine): 60% | Average increase of the stereotypies [1]: 5.5

CCC(Oc1cccc2ccoc12)C(N)=NO (stereo not shown) [Compound 42, 2-(7-Benzofuryloxy)-butyramidoxime]
mortality at 50 mg/kg (toxicity of yohimbine): 60%
